Reference: patent US20050214394A1, “Hippophae rhamnoides compositions for cancer therapy” (priority 2003, published 2005)

Experiments:
COX-1 = biological target: T1, COX-1 (Ovis aries, UniProt P05979); experiment: COX-1 ELISA assay kit (PGHS-1 converting arachidonic acid to prostaglandins); settings: commercial anti-inflammatory drug (positive control); concentration not given
T1 sequence (P05979 25-600): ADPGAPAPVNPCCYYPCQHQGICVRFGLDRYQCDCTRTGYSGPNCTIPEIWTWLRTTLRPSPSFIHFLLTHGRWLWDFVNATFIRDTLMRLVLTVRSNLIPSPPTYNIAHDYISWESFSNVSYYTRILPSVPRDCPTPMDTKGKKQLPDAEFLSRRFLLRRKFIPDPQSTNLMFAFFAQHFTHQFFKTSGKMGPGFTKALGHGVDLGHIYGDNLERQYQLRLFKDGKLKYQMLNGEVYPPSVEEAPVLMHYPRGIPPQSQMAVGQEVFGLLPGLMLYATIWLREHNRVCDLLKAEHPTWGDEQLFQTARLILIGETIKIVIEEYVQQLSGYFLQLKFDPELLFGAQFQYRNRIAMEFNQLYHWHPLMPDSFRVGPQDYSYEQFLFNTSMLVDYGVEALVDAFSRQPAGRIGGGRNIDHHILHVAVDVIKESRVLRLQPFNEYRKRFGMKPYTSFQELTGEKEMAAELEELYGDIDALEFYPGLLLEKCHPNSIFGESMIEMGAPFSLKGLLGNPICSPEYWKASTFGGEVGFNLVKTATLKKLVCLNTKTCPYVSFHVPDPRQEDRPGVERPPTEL

COX-2 = biological target: T2, COX-2 (Homo sapiens, UniProt P35354); experiment: COX-2 ELISA assay kit (PGHS-2 converting arachidonic acid to prostaglandins)
T2 sequence (P35354 18-604): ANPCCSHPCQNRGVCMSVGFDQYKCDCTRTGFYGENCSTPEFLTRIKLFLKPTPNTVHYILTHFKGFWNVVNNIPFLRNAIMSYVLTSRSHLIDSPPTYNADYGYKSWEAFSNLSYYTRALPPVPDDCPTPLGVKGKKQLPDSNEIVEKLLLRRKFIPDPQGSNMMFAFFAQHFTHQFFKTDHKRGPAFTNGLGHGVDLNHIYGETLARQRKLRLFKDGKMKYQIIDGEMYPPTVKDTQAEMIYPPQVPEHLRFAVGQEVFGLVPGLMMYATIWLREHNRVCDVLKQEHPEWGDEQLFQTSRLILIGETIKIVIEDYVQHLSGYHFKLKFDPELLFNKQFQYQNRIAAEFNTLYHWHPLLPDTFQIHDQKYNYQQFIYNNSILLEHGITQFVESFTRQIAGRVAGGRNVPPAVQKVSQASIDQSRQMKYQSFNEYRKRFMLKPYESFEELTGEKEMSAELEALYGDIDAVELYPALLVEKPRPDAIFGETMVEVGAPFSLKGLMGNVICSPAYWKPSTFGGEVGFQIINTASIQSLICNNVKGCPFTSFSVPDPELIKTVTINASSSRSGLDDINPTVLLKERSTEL
Experimental: The anti-inflammatory assays for COX-2 inhibitory activity were conducted using prostaglandin endoperoxide H synthase-1 and -2 isozymes (PGHS-1, and -2) based on their ability to convert arachidonic acid to prostaglandins (PGs).
Inhibition was measured by COX-1 and COX-2 ELISA assay kits (Cayman Chemical Co., Ann Arbor, Mich.).

CC(=O)Oc1ccccc1C(=O)O [aspirin]
inhibition of COX-1 (COX-1): 58%
inhibition of COX-2 (COX-2): 42%
